According to ChEMBL document CHEMBL1140783, “Design and synthesis of 4-quinolinone 2-carboxamides as calpain inhibitors” (Bioorg Med Chem Lett, 2008):

Each compound was assayed against T1, Calpain-1 catalytic subunit (Homo sapiens, UniProt P07384) (assay: Inhibition of human mu-calpain).
T1 sequence (P07384 whole entry): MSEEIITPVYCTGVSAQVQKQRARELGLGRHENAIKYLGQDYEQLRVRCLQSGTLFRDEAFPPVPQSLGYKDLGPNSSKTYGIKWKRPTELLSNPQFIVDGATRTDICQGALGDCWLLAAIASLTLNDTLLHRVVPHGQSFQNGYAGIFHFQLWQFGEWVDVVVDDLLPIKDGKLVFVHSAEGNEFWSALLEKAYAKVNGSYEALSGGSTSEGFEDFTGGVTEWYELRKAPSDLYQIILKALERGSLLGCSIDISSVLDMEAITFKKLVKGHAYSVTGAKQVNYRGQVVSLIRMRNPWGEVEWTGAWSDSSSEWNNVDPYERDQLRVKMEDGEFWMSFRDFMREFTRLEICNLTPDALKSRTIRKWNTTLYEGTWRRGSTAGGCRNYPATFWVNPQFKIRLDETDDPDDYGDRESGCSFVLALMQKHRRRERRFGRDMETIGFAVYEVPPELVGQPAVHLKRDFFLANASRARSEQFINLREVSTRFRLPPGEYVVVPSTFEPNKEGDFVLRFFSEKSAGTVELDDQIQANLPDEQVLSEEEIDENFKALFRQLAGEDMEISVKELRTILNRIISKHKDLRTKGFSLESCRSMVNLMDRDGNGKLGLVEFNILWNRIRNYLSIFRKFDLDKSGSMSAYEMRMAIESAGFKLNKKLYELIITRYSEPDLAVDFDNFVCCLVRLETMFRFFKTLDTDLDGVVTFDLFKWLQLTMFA
With `Cc1c(C(=O)N[C@@H](Cc2ccccc2)C(=O)C(=O)NCCc2ccccc2)nc2ccccc2c1O` the IC50 was 3.71 µM. Work on `Cc1c(C(=O)N[C@@H](Cc2ccccc2)C(=O)C(N)=O)oc2ccccc2c1=O` yielded an IC50 of 0.04 µM. `COc1ccc(CNC(=O)C(=O)[C@H](Cc2ccccc2)NC(=O)c2[nH]c3ccccc3c(=O)c2C)cc1OC` showed an IC50 of 1.78 µM. In the case of `Cc1c(C(=O)N[C@@H](Cc2ccccc2)C(=O)C(N)=O)nc2ccccc2c1O`, the IC50 is reported as 0.71 µM. In the case of `CNC(=O)C(=O)[C@H](Cc1ccccc1)NC(=O)c1[nH]c2ccccc2c(=O)c1C`, the IC50 is reported as 8.62 µM. With `COc1ccc(CCNC(=O)C(=O)[C@H](Cc2ccccc2)NC(=O)c2[nH]c3ccccc3c(=O)c2C)cc1` the IC50 was 0.73 µM. `Cc1c(C(=O)N[C@@H](Cc2ccccc2)C(=O)C(=O)NC(C)C)nc2ccccc2c1O` gave an IC50 of over 50 µM. With `Cc1c(C(=O)N[C@@H](Cc2ccccc2)C(=O)C(=O)NCc2ccccn2)nc2ccccc2c1O` the IC50 was 7.72 µM. For `Cc1c(C(=O)N[C@@H](Cc2ccccc2)C(=O)C(=O)NCc2ccccc2)[nH]c2ccccc2c1=O`, the IC50 was 5.01 µM. `Cc1c(C(=O)N[C@@H](Cc2ccccc2)C(=O)C(=O)NCc2ccc(F)cc2)[nH]c2ccccc2c1=O` showed an IC50 of 5.63 µM. Compound `COc1ccc(CNC(=O)C(=O)[C@H](Cc2ccccc2)NC(=O)c2nc3ccccc3c(O)c2C)cc1` has an IC50 of 3.81 µM. With `Cc1c(C(=O)N[C@@H](Cc2ccccc2)C(=O)C(=O)NCCc2ccccn2)[nH]c2ccccc2c1=O` the IC50 was 6.28 µM. For `CCNC(=O)C(=O)[C@H](Cc1ccccc1)NC(=O)c1nc2ccccc2c(O)c1C`, the IC50 was 40.2 µM.
